Laboratory results as given in ChEMBL document CHEMBL3507680, “University of Dundee, Gates Library screen for HepG2 cell viability”.

Test: Human HepG2 cell viability assay in 384 well format
Format: toxicity, cell-based
Design: dose 125 nL, time 70.5 hour; concentration not given beside the values
Settings: HepG2 cells, read-out: Inhibition

Row | SMILES | cytotoxicity at 70.5 h
1 | Cc1cc(C)nc(N2CCC(C(=O)Nc3n[nH]c(CC(C)C)n3)CC2)n1 | -12%
2 | Cc1cc(C)nc(NCCC(=O)Nc2ccc(Cn3cncn3)cc2)n1 | -9.08%
3 | CC(C)[C@H](NC(=O)N1CCN(c2ccc(Cl)cc2)CC1)C(=O)NC1CC1 | -17%
4 | Cc1ccc(C(=O)N2C[C@@H]3CN(S(C)(=O)=O)CCO[C@@H]3C2)o1 | -0.0736%
5 | CC(=O)N1CCC2(CC1)C(=O)N(C)c1c(F)cccc12 | 3.91%
6 | CC(C)CNC(=O)c1cc2c(s1)CCN2Cc1cccnc1 | -1.22%
7 | COCCCN1CCCCC12CC(=O)N(Cc1ccccn1)C2 (stereo not given) | -1.98%
8 | Cn1cc(CN2CCc3ncnc(N4CCCC4)c3CC2)cn1 | -0.713%
9 | Cn1cccc1C(=O)N1C[C@@H]2CCCO[C@@H]2[C@H](N2CCOCC2)C1 | 0.647%
10 | Cc1ccc(CC(=O)N2CC[C@@H]3NC(=O)CC[C@@H]32)cc1 | 4.9%
11 | CN(C)CCN1CCOC2(CCN(c3nccs3)CC2)c2ccccc21 | 28.7%
12 | CS(=O)(=O)N1CCOC2(CCN(c3nccs3)CC2)c2ccccc21 | 15.3%
13 | CC(C)CN1C(=O)CO[C@@H]2CN(C(=O)NC(C)C)C[C@H]21 | -2.72%
14 | CN(Cc1ccncc1)C1CCC[C@@H]2CN(c3ncccn3)C[C@H]12 (stereo not given in full) | -2.1%
15 | Cc1noc(C)c1CN1C[C@@H]2CN(C(=O)c3cscn3)C[C@@H]2C1 | -2.29%
16 | Cn1cc(CN2CCO[C@H]3C(Cn4cccn4)CC[C@@H]32)cn1 (stereo not given in full) | 2.67%
17 | Cn1cccc1C(=O)N1CC[C@@H]2[C@@H]1CC(=O)N2CC1CCOCC1 | 0.858%
18 | COCCNC(=O)C1CN(Cc2ccsc2)Cc2ccnn2C1 (stereo not given) | 1.38%
19 | CS(=O)(=O)N1CC2(CCN(c3nccs3)CC2)c2ccccc21 | 5.59%
20 | CS(=O)(=O)N1CCOC2(CCN(c3ncccn3)CC2)c2ccccc21 | -1.05%
21 | CCn1nnc2c1C(COCCN(C)C)CN(c1nncs1)C2 (stereo not given) | 31.1%
22 | CN1CC(c2ccccc2)C2(CCN(C(=O)c3ccc[nH]3)CC2)C1=O (stereo not given) | 2.63%
23 | COCCN1C(=O)CC[C@]12CC[C@@H](NCc1ccc(OC)cc1)CC2 | 0.729%
24 | O=S(=O)(c1cccnc1)N1C[C@@H]2COC[C@]2(COCC2CC2)C1 | -3.67%
25 | CS(=O)(=O)N1CCO[C@@H]2CN(Cc3ccc(F)cc3)C[C@@H]2C1 | -6.95%

Row | SMILES | cytotoxicity at 70.5 h
26 | COCc1nn(CC2CC2)c2c1CN(C(=O)c1ccno1)CC2 | -3.21%
27 | CCOCc1nn(C)c2c1CN(C(=O)c1ccno1)CC2 | -4.99%
28 | Cn1cc(CN2CCC3(CCCN(C(=O)c4cnccn4)C3)C2)cn1 (stereo not given) | -5.89%
29 | CO[C@H]1CN(C(=O)c2ccc(C)o2)[C@@H]2CCCO[C@H]12 | -0.145%
30 | CNC(=O)C1Cn2ccnc2C2(CCN(Cc3csc(C)n3)CC2)O1 (stereo not given) | -2.63%
31 | CCn1c(SCC(=O)N2CCCC2)nc2cc(C)[nH]c2c1=O | 36.5%
32 | Cc1cc2nc(SCC(=O)N3CCCC3)n(C)c(=O)c2[nH]1 | -3.73%
33 | Cc1cc(-n2nnc(C(=O)O)c2-c2ccncc2)ccc1F | -20%
34 | CN1C(=O)C2(CCN(C(=O)c3ccccc3)CC2)c2cccc(F)c21 | 0.835%
35 | Cc1cccc(CN2CCS(=O)(=O)[C@@H]3CCN(S(C)(=O)=O)CC[C@@H]32)n1 | 17.2%
36 | CN(C)C(=O)N[C@H]1CN(C2CCOCC2)[C@@H]2CCCO[C@H]12 | 17.6%
37 | Cc1noc(C)c1CN1CC2(CCCCN2C)CC1=O (stereo not given) | 17.1%
38 | CCc1ccc(CN2CCc3ncnc(N4CCOCC4)c3CC2)o1 | -1.4%
39 | CN(C)CC(=O)N1CCc2ncnc(-c3cncnc3)c2CC1 | -3.5%
40 | O=C1NC2(CCN(CC3CC3)CC2)CC1c1ccccc1 (stereo not given) | -1.19%
41 | O=C([C@H]1C[C@@H]2[C@@H](C1)OCCN2CC1CC1)N1CCCC1 | -1.83%
42 | O=C(c1ccccc1)N1C[C@@H]2CCCO[C@@H]2[C@H](N2CCOCC2)C1 | 1.03%
43 | O=C(c1ccoc1)N1CCCC2(CCC(=O)N2Cc2cccnc2)C1 (stereo not given) | 2.4%
44 | O=C(NC1CC1)N1CCc2ccc(=O)n(Cc3cccnc3)c2CC1 | 6.33%
45 | Cc1ccc(CN2CCOC3(CCN(C(=O)C4CC=CC4)CC3)C2)cc1 | -2.99%
46 | CCn1nnc2c1C(COCCN(C)C)CN(S(=O)(=O)CC)C2 (stereo not given) | -1.87%
47 | COc1cccc(CN2CCC3(CC2)CCN(c2ncc(C)cn2)C3)c1 | -0.283%
48 | c1cnc(N2CCO[C@H]3[C@H](OCCN4CCCC4)CC[C@@H]32)nc1 | 0.11%
49 | Cc1ccc(CN2CCOC3(CCN(C(=O)N4CCCC4)CC3)C2)cc1 | -2.45%
50 | CCn1nnc2c1C(COCCN(C)C)CN(S(C)(=O)=O)C2 (stereo not given) | 2.19%

Row | SMILES | cytotoxicity at 70.5 h
51 | O=C(NC1CC1)N1CCc2ccc(=O)n(CCN3CCCC3)c2CC1 | 0.272%
52 | N#Cc1ccc(N2CCC3(CC2)CC(OCc2cccnc2)CO3)cc1 (stereo not given) | -1.15%
53 | CN(C)C(=O)COC1COC2(CCN(c3cnccn3)CC2)C1 (stereo not given) | 1.25%
54 | O=C1N(CC2CC2)CCC12CCN(CC1CC1)CC2 | -6.9%
55 | CC(C)CN1CCC2(CCN(CC3CC3)CC2)C1=O | -8.5%
56 | CC(C)CN1CCS(=O)(=O)[C@@H]2CCN(S(=O)(=O)CC(C)C)CC[C@@H]21 | -3.69%
57 | COCCN1CCC2(CCN(CC3CC3)CC2)C1=O | -2.3%
58 | Cc1nc(CN2CCC3(CCCN(C(=O)c4cnccn4)C3)C2)cs1 (stereo not given) | -2.34%
59 | Cc1noc([C@@H]2C[C@@H]3CCN(CC4CC4)C[C@H]3O2)n1 | -4.17%
60 | O=C(Cc1ccsc1)N1C[C@@H]2COC[C@]2(COCc2cccnc2)C1 | -0.0283%
61 | Cc1ccccc1C(=O)N1C[C@@H]2COC[C@]2(COCc2cccnc2)C1 | 2.96%
62 | CCOC(=O)[C@]12CCCN(Cc3nccs3)C[C@H]1CN(S(C)(=O)=O)C2 | -6.29%
63 | CC(C)N(C)Cc1nnc2n1CCN(CC1CC1)CC2 | -0.138%
64 | Cc1ccc2c(n1)N(C)CCN(Cc1ccco1)C2 | -1.42%
65 | O=C(CO[C@@H]1CC[C@H]2[C@H]1OCCN2Cc1ccccn1)N1CCCC1 | 13.4%
66 | Cn1cnc(S(=O)(=O)N2C[C@H]3CN(Cc4ccccn4)C[C@H]3C2)c1 | -1.38%
67 | CCN1C[C@H]2[C@@H](C1)N(c1ncc(F)cn1)CC[C@H]2OC | 14.2%
68 | COc1ccc2c(c1)C1(CCN(Cc3nccs3)CC1)N(C)CC2 | 5.77%
69 | O=C1NCC[C@]12CN(Cc1ccncc1)C[C@H]2c1ccccc1 | -1.85%
70 | O=C1NCC[C@]12CN(Cc1cccnc1)C[C@H]2c1ccccc1 | -3.58%
71 | CCOC(=O)[C@]12CCCN(Cc3nccs3)C[C@H]1CN(CCOC)C2 | -1.13%
72 | CCOC(=O)[C@]12CCCN(Cc3nccs3)C[C@H]1CN(C(C)C)C2 | -3.32%
73 | Cc1ccc2c(n1)N(C)CCN(CCN1CCCC1)C2 | 4.19%
74 | Cc1ccc(CN2CCC3(CC2)CC3CN(C)Cc2cccnc2)o1 (stereo not given) | -5.02%
75 | CN(C)CCN1CCO[C@H]2CN(Cc3ccccn3)C[C@H]21 | -6%
